Measurements: US5486601A, “Trisazo dye, and aqueous ink composition containing the same” (priority 1993, dated 1996)
Structures can show the parent of a compound that is named as a salt. Where two headings read alike, the source gives them in different places.

Columns and labels:
[1] = Solubility of dye (Na salt) in water; assay type: physicochemical
Description: Evaluation Method of Solubility of Dye
A Na salt (2 g) of the resulting dye was dissolved in water (10 g), and the dye solution was filtered and concentrated/dried to determine a solubility (g of dye/100 g of water) of the dye.

[2] = system: strain TA98; experiment: AMES test (reverse mutagenicity test), strain TA98, with and without S-9; assay type: cell-based; settings: TA98, with and without S9, 20 to 5000 μg/plate
Description: (§1) Regarding specimen solutions containing the trisazo compounds (dyes) of the present invention obtained in Examples 1 to 9 and dyes of Comparative Examples 1 to 3, respectively, the total number of the mutant colony was determined using the strain TA98. When the resulting magnification is not more than 2, it is evaluated as "negative". On the other hand, when the resulting magnification is not less than 2, it is evaluated as "positive".
(§2) In Table 1, the modification in case that no drug-metabolizing active enzyme S-9 is added is shown in the column "-" and the modification in case that a drug-metabolizing active enzyme S-9 is added is shown in the column "+".

[3] = background statement on known dyes; cited from earlier work
[4] = Stability of tetrazonium salt; assay type: physicochemical
[5] = AMES test / mutagenicity as stated in general text; settings: dye intermediate
[6] = AMES test (reverse mutagenicity test), strain TA98, with and without S-9; assay type: cell-based; settings: read-out: magnification of the total number of the mutant colony to the control
Description: as §1, §2

[7] = s9, TA98, with S9, 313 μg/plate
[8] = s9, TA98, with S9, 1250 μg/plate
[9] = s9, TA98, with S9, 5000 μg/plate
[10] = s9, TA98, without S9, 20 μg/plate
[11] = s9, TA98, without S9, 78 μg/plate
[12] = s9, TA98, without S9, 313 μg/plate
[13] = s9, TA98, without S9, 1250 μg/plate
[14] = s9, TA98, without S9, 5000 μg/plate

For `Cc1cc(-c2ccc(N=Nc3c(S(=O)(=O)[O-])cc4cc(S(=O)(=O)[O-])c(N=Nc5ccccc5)c(O)c4c3N)c(C)c2)ccc1N=Nc1ccc(N)cc1N.[Na+].[Na+]` [Comparative Example 2, C.I. Direct Black 154, reference compound], the “Solubility Dye(g)/water (100 g)” value [1] was 20 g of dye/100 g of water, the “Solubility Evaluation” value [1] was “.circleincircle. (solubility is not less than 15)” and the “AMES Evaluation” value [2] was “Positive (when the resulting magnification is not less than 2, it is evaluated as "positive")”. The “results of AMES test” value [3] was “false positive or positive”.

With `N#[N+]c1ccc(C2(c3ccc([N+]#N)cc3)CCCCC2)cc1` [tetrazonium salt, tetrazonium salt of 1,1-bis(4-aminophenyl)cyclohexane] the “stability of tetrazonium salt” value [4] was “comparatively stable”.

In the case of `Nc1ccc(C2(c3ccc(N)cc3)CCCCC2)cc1` [1,1-bis(4-aminophenyl)cyclohexane], the mutagenicity [5] was “negative”.

For `CCCCc1ccc(N=Nc2c(S(=O)(=O)O)cc3cc(S(=O)(=O)O)c(N=Nc4ccc(C5(c6ccc(N=Nc7ccc(N(C)C)cc7O)cc6)CCCCC5)cc4)c(N)c3c2O)cc1` [Example 9], the “Solubility Dye(g)/water (100 g)” value [1] was 12 g of dye/100 g of water, the “Solubility Evaluation” value [1] was “.smallcircle. (solubility is within a range from 10 to 15)” and the fold induction ([6]; s9, TA98, with S9, 20 μg/plate) was 1.15. For the same compound, the fold induction ([6]; s9, TA98, with S9, 78 μg/plate) was 1.37, the fold induction [6, 7] was 0.77 and the fold induction [6, 8] was 0.41. The fold induction [6, 9] was 0.59, the fold induction [6, 10] was 0.77 and the fold induction [6, 11] was 0.73. The fold induction [6, 12] was 0.58, the fold induction [6, 13] was 0.38 and the fold induction [6, 14] was 0.54. For the same compound, the “AMES Evaluation” value [2] was “Negative (When the resulting magnification is not more than 2, it is evaluated as "negative")”.

For `Nc1ccc(N=Nc2ccc(C3(c4ccc(N=Nc5c(S(=O)(=O)O)cc6cc(S(=O)(=O)O)c(N=Nc7ccccc7)c(O)c6c5N)cc4)CCCCC3)cc2)c(O)c1` [Example 4], the “Solubility Dye(g)/water (100 g)” value [1] was 15 g of dye/100 g of water, the “Solubility Evaluation” value [1] was “.circleincircle. (solubility is not less than 15)” and the fold induction ([6]; s9, TA98, with S9, 20 μg/plate) was 1.44. The fold induction ([6]; s9, TA98, with S9, 78 μg/plate) was 1.4, the fold induction [6, 7] was 1.08 and the fold induction [6, 8] was 1.16. It also gave a fold induction [6, 9] of 0.96, a fold induction [6, 10] of 1 and a fold induction [6, 11] of 0.93. The fold induction [6, 12] was 1.07, the fold induction [6, 13] was 0.87 and the fold induction [6, 14] was 0.93. For the same compound, the “AMES Evaluation” value [2] was “Negative (When the resulting magnification is not more than 2, it is evaluated as "negative")”.

For `CCC(C)c1ccc(N=Nc2c(S(=O)(=O)O)cc3cc(S(=O)(=O)O)c(N=Nc4ccc(C5(c6ccc(N=Nc7ccc(N)cc7O)cc6)CCCCC5)cc4)c(N)c3c2O)cc1` (stereo not shown) [Example 3], the “Solubility Dye(g)/water (100 g)” value [1] was 12 g of dye/100 g of water, the “Solubility Evaluation” value [1] was “.smallcircle. (solubility is within a range from 10 to 15)” and the fold induction ([6]; s9, TA98, with S9, 20 μg/plate) was 0.81. It also gave a fold induction ([6]; s9, TA98, with S9, 78 μg/plate) of 1.31, a fold induction [6, 7] of 1 and a fold induction [6, 8] of 0.56. It also gave a fold induction [6, 9] of 0.69, a fold induction [6, 10] of 0.81 and a fold induction [6, 11] of 0.5. For the same compound, the fold induction [6, 12] was 0.5, the fold induction [6, 13] was 0.5 and the fold induction [6, 14] was 0.69. The “AMES Evaluation” value [2] was “Negative (When the resulting magnification is not more than 2, it is evaluated as "negative")”.

In the case of `CCCCc1ccc(N=Nc2c(S(=O)(=O)O)cc3cc(S(=O)(=O)O)c(N=Nc4ccc(C5(c6ccc(N=Nc7ccc(N)cc7O)cc6)CCCCC5)cc4)c(N)c3c2O)cc1` [Example 1], the “Solubility Dye(g)/water (100 g)” value [1] was 12 g of dye/100 g of water, the “Solubility Evaluation” value [1] was “.smallcircle. (solubility is within a range from 10 to 15)” and the fold induction ([6]; s9, TA98, with S9, 20 μg/plate) was 1.21. The fold induction ([6]; s9, TA98, with S9, 78 μg/plate) was 1.03, the fold induction [6, 7] was 0.9 and the fold induction [6, 8] was 0.63. It also gave a fold induction [6, 9] of 0.69, a fold induction [6, 10] of 0.91 and a fold induction [6, 11] of 0.86. For the same compound, the fold induction [6, 12] was 0.91, the fold induction [6, 13] was 0.95 and the fold induction [6, 14] was 0.5. For the same compound, the “AMES Evaluation” value [2] was “Negative (When the resulting magnification is not more than 2, it is evaluated as "negative")”.

With `CCCCc1ccc(N=Nc2c(S(=O)(=O)O)cc3cc(S(=O)(=O)O)c(N=Nc4ccc(C5(c6ccc(N=Nc7ccc(N(C)C)cc7C(=O)O)cc6)CCCCC5)cc4)c(N)c3c2O)cc1` [Example 8] the “Solubility Dye(g)/water (100 g)” value [1] was 15 g of dye/100 g of water, the “Solubility Evaluation” value [1] was “.circleincircle. (solubility is not less than 15)” and the fold induction ([6]; s9, TA98, with S9, 20 μg/plate) was 1.13. For the same compound, the fold induction ([6]; s9, TA98, with S9, 78 μg/plate) was 0.94, the fold induction [6, 7] was 1.06 and the fold induction [6, 8] was 0.53. It also gave a fold induction [6, 9] of 0.59, a fold induction [6, 10] of 0.76 and a fold induction [6, 11] of 0.86. For the same compound, the fold induction [6, 12] was 0.86, the fold induction [6, 13] was 0.76 and the fold induction [6, 14] was 0.71. The “AMES Evaluation” value [2] was “Negative (When the resulting magnification is not more than 2, it is evaluated as "negative")”.

With `CCCCc1ccc(N=Nc2c(S(=O)(=O)O)cc3cc(S(=O)(=O)O)c(N=Nc4ccc(C5(c6ccc(N=Nc7ccc(O)cc7O)cc6)CCCCC5)cc4)c(N)c3c2O)cc1` [Example 2] the “Solubility Dye(g)/water (100 g)” value [1] was 15 g of dye/100 g of water, the “Solubility Evaluation” value [1] was “.circleincircle. (solubility is not less than 15)” and the fold induction ([6]; s9, TA98, with S9, 20 μg/plate) was 1.09. For the same compound, the fold induction ([6]; s9, TA98, with S9, 78 μg/plate) was 1.09, the fold induction [6, 7] was 0.55 and the fold induction [6, 8] was 0.55. The fold induction [6, 9] was 0.42, the fold induction [6, 10] was 0.78 and the fold induction [6, 11] was 0.7. For the same compound, the fold induction [6, 12] was 0.61, the fold induction [6, 13] was 0.39 and the fold induction [6, 14] was 0.3. The “AMES Evaluation” value [2] was “Negative (When the resulting magnification is not more than 2, it is evaluated as "negative")”.

For `CC(C)c1ccc(N=Nc2c(S(=O)(=O)O)cc3cc(S(=O)(=O)O)c(N=Nc4ccc(C5(c6ccc(N=Nc7ccc(N)cc7O)cc6)CCCCC5)cc4)c(N)c3c2O)cc1` [Example 5], the “Solubility Dye(g)/water (100 g)” value [1] was 13 g of dye/100 g of water, the “Solubility Evaluation” value [1] was “.smallcircle. (solubility is within a range from 10 to 15)” and the fold induction ([6]; s9, TA98, with S9, 20 μg/plate) was 1.77. It also gave a fold induction ([6]; s9, TA98, with S9, 78 μg/plate) of 1.27, a fold induction [6, 7] of 1.41 and a fold induction [6, 8] of 1.45. The fold induction [6, 9] was 1.05, the fold induction [6, 10] was 0.9 and the fold induction [6, 11] was 0.76. For the same compound, the fold induction [6, 12] was 1.07, the fold induction [6, 13] was 0.83 and the fold induction [6, 14] was 0.48. The “AMES Evaluation” value [2] was “Negative (When the resulting magnification is not more than 2, it is evaluated as "negative")”.

In the case of `CCCCc1ccc(N=Nc2c(S(=O)(=O)O)cc3cc(S(=O)(=O)O)c(N=Nc4ccc(C5(c6ccc(N=Nc7ccc(N(CC)CC)cc7C)cc6)CCCCC5)cc4)c(N)c3c2O)cc1` [Example 7], the “Solubility Dye(g)/water (100 g)” value [1] was 12 g of dye/100 g of water, the “Solubility Evaluation” value [1] was “.smallcircle. (solubility is within a range from 10 to 15)” and the fold induction ([6]; s9, TA98, with S9, 20 μg/plate) was 1.03. It also gave a fold induction ([6]; s9, TA98, with S9, 78 μg/plate) of 0.92, a fold induction [6, 7] of 0.81 and a fold induction [6, 8] of 1.08. The fold induction [6, 9] was 1.03, the fold induction [6, 10] was 1.05 and the fold induction [6, 11] was 1.1. It also gave a fold induction [6, 12] of 0.9, a fold induction [6, 13] of 0.62 and a fold induction [6, 14] of 1.1. The “AMES Evaluation” value [2] was “Negative (When the resulting magnification is not more than 2, it is evaluated as "negative")”.

In the case of `Cc1ccc(N=Nc2c(S(=O)(=O)O)cc3cc(S(=O)(=O)O)c(N=Nc4ccc(C5(c6ccc(N=Nc7ccc(N)cc7O)cc6)CCCCC5)cc4)c(N)c3c2O)cc1` [Example 6], the “Solubility Dye(g)/water (100 g)” value [1] was 15 g of dye/100 g of water, the “Solubility Evaluation” value [1] was “.circleincircle. (solubility is not less than 15)” and the fold induction ([6]; s9, TA98, with S9, 20 μg/plate) was 1.38. It also gave a fold induction ([6]; s9, TA98, with S9, 78 μg/plate) of 1.43, a fold induction [6, 7] of 0.95 and a fold induction [6, 8] of 0.68. For the same compound, the fold induction [6, 9] was 0.65, the fold induction [6, 10] was 1.19 and the fold induction [6, 11] was 1.22. It also gave a fold induction [6, 12] of 1.48, a fold induction [6, 13] of 1.3 and a fold induction [6, 14] of 1.15. The “AMES Evaluation” value [2] was “Negative (When the resulting magnification is not more than 2, it is evaluated as "negative")”.

In the case of `Nc1ccc(N=Nc2ccc(N=Nc3c(S(=O)(=O)[O-])cc4cc(S(=O)(=O)[O-])c(N=Nc5ccc(N=Nc6ccc(N)cc6N)cc5)c(O)c4c3N)cc2)c(N)c1.[Na+].[Na+]` [Comparative Example 1, C.I. Direct Black 19, reference compound], the “Solubility Dye(g)/water (100 g)” value [1] was 20 g of dye/100 g of water, the “Solubility Evaluation” value [1] was “.circleincircle. (solubility is not less than 15)” and the “AMES Evaluation” value [2] was “Positive (when the resulting magnification is not less than 2, it is evaluated as "positive")”. For the same compound, the “results of AMES test” value [3] was “false positive or positive”.

For “C.I. Direct Black 168 [Comparative Example 3, reference compound]”, the “Solubility Dye(g)/water (100 g)” value [1] is given as 20 g of dye/100 g of water, the “Solubility Evaluation” value [1] is given as “.circleincircle. (solubility is not less than 15)” and the “results of AMES test” value [3] is given as “false positive or positive”.
